Measurements as given in patent publication US20250263415A1, “TERTIARY AMIDE DERIVATIVES SUBSTITUTED WITH 4-MEMBERED RING STRUCTURE” (Sumitomo Pharma Co., Ltd., priority 2024, published 2025).
pIC50: −log10 of the molar value. In brackets after ≈: the same amount, converted by molar mass. Read-outs that look alike come from different tables or passages of the source. Values belong to the molecule of their own block, whether it stands above or below them.

How the values were obtained:
G-401 xenograft = assay: Drug efficacy evaluation by intravenous administration using G-401 xenograft mice model; format: in vivo; details: G-401 xenograft model
Method: G-401 cells (ATCC) were intradermally transplanted into 4-7-week-old BALB/cAnNCrj-nu/nu mice (CAnN.Cg-Foxnl/CrlCrlj, Jackson Laboratory Japan) at 5×10^5 cells/mouse. After confirming the engraftment of G-401 cells 10-40 days after transplantation, the test compound suspended in a solvent such as 10 mmol/L glycine buffer solution (pH 2.0) was administered via the tail vein at least once a week at a dose of 0.015-20 mg/kg. The tumor volume was measured over time from the start of administration, and the effect of tumor volume reduction by administration of the test compound was evaluated. The tumor volume can be calculated from the following equation using the minor axis and major axis of the tumor measured with an electronic caliper (Mitutoyo).
A control administration group administered with only a solvent such as 10 mmol/L glycine buffer solution (pH 2.0) and a test compound administration group were compared, and the antitumor effect was evaluated by calculating T/C from the following equation.

Solubility test = format: physicochemical; details: for solubility: aqueous buffer, thermodynamic from solid
Method: The solubility was measured for Examples 7, 10, 20, 23, 24, and 30 to 34, Comparative Example 1, and Comparative Example 2. The test compound was added to 10 mmol/L glycine buffer (pH 2.0) and 10 mmol/L citrate buffer (pH 3.0), and the mixture was stored in a thermostatic chamber at 5° C. After standing overnight, the mixture was filtered through a membrane filter, and the concentration of the filtrate was measured by HPLC.
The HPLC measurement conditions are as follows.
HPLC conditions • Column: Acquity UPLC BEH C18, 1.7 μm, 50×2.1 mm • Column temperature: 40° C. • Mobile phase: A: 0.1% trifluoroacetic acid-containing water • B: acetonitrile • A/B (min): 95/5 (0)→0/100 (3.5)→0/100 (4)→95/5 (4.01)→95/5 (5) • Flow rate: 0.8 mL/min • Detection: UV visible detector, measurement wavelength 254 nm • Injection volume: 5 μL or • Column: Acquity UPLC BEH C18, 1.7 μm, 50×2.1 mm • Column temperature: 40° C. • Mobile phase: A: 0.1% trifluoroacetic acid-containing water • B: acetonitrile • A/B (min): • 80/20 (0)→40/60 (3.0)→0/100 (3.5)→0/100 (4)→80/20 (4.01)→80/20 (5) • Flow rate: 0.8 mL/min • Detection: UV visible detector, measurement wavelength 254 nm • Injection volume: 2 μL or • Column: Acquity UPLC BEH C18, 1.7 μm, 50×2.1 mm • Column temperature: 40° C. • Mobile phase: A: 0.1% trifluoroacetic acid-containing water • B: acetonitrile • A/B (min): • 80/20 (0)→40/60 (3.0)→0/100 (3.5)→0/100 (4)→100/0 (4.01)→100/0 (5) • Flow rate: 0.8 mL/min • Detection: UV visible detector, measurement wavelength 254 nm • Injection volume: 3 μL

hSERT = hSERT (Homo sapiens (Human), UniProt P31645); assay: Serotonin receptor inhibitory activity evaluation (binding assay, HEK293/hSERT membranes); details: for Inhibitory effect on serotonin receptors (in words): off-target
hSERT, sequence (P31645 whole entry): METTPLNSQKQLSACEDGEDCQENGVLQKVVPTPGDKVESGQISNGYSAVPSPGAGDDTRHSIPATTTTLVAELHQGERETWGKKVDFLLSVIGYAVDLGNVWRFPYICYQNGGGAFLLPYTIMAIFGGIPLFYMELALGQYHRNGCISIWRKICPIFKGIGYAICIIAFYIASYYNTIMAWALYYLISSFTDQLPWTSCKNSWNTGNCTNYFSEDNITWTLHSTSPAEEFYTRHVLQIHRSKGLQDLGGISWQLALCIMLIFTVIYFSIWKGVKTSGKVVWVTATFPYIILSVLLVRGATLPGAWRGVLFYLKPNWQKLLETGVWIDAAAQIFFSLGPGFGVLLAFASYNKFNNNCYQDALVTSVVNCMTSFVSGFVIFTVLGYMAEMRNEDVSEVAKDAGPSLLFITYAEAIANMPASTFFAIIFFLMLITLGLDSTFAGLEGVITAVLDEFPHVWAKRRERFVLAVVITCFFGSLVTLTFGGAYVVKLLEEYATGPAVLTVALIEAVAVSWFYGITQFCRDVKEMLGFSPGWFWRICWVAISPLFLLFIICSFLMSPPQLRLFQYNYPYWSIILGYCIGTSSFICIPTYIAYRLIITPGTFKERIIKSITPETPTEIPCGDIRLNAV
Method: The binding evaluation assay was outsourced to Eurofins. Specifically, HEK293/hSERT cells were homogenized in a buffer consisting of 100 mmol/L NaCl, 1 μmol/L Leupeptin, 10 μmol/L PMSF, and 50 mmol/L Tris-HCl (pH7.4). The membrane pellet obtained by centrifugation was resuspended in an incubation buffer consisting of 50 mmol/L Tris-HCl (pH 7.4), 120 mmol/L NaCl, and 5 mmol/L KCl to prepare a membrane preparation. The test compound (1-10 μmol/L DMSO solution), the membrane preparation, and 0.4 nmol/L [^3H]Paroxetin were mixed and incubated at 25° C. for 60 minutes. The cell membrane-[^3H]Paroxetin complex was bound to a GF/B filter mat by vacuum filtration and washed with 50 mmol/L Tris-HCl (pH 7.4). The effect on the receptor was assessed by measuring radioactivity using a scintillation counter.

hDAT = hDAT (Homo sapiens (Human), UniProt Q01959); assay: Dopamine receptor inhibitory activity evaluation (binding assay, CHO-S/hDAT membranes); details: for Inhibitory effect on dopamine receptors (in words): off-target
hDAT, sequence (Q01959 whole entry): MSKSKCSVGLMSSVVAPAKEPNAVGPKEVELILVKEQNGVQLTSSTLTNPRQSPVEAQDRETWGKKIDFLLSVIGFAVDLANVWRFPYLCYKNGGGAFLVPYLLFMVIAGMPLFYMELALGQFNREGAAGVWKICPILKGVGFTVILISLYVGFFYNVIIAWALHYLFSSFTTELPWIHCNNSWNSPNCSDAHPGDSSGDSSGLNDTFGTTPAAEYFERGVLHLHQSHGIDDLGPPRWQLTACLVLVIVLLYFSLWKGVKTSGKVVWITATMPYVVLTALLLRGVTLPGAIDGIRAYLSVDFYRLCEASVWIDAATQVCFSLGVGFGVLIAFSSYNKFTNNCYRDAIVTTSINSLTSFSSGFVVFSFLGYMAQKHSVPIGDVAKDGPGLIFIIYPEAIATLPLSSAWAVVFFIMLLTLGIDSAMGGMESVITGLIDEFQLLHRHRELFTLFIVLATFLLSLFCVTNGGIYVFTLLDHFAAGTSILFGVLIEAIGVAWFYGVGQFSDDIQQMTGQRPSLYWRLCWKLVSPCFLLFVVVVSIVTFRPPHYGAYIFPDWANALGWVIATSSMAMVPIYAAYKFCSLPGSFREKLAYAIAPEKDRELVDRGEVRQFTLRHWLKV
Method: The binding evaluation assay was outsourced to Eurofins. Specifically, CHO—S/hDAT cells were homogenized in an incubation buffer consisting of 50 mmol/L Tris-HCl, pH 7.4, 100 mmol/L NaCl, 1 μmol/L Leupeptin, and 10 μmol/L PMSF. The membrane pellet obtained by centrifugation was resuspended in the incubation buffer to prepare a membrane preparation. The test compound (1-10 μmol/L DMSO solution), the membrane preparation, and 0.15 nmol/L […] were mixed and incubated at 4° C. for 180 minutes. The cell membrane-[^125I]RTI-55 complex was bound to a GF/B filter mat by vacuum filtration and washed with 50 mmol/L Tris-HCl, pH 7.4. The effect on the receptor was assessed by measuring radioactivity using a scintillation counter.

recombinant p300 = recombinant p300 (Homo sapiens (Human), UniProt Q09472); assay: HAT activity inhibition experiment (SensoLyte HAT(p300) Assay Kit); format: biochemical; details: recombinant p300, acetyl CoA, histone H3 peptide
recombinant p300, sequence (Q09472 whole entry): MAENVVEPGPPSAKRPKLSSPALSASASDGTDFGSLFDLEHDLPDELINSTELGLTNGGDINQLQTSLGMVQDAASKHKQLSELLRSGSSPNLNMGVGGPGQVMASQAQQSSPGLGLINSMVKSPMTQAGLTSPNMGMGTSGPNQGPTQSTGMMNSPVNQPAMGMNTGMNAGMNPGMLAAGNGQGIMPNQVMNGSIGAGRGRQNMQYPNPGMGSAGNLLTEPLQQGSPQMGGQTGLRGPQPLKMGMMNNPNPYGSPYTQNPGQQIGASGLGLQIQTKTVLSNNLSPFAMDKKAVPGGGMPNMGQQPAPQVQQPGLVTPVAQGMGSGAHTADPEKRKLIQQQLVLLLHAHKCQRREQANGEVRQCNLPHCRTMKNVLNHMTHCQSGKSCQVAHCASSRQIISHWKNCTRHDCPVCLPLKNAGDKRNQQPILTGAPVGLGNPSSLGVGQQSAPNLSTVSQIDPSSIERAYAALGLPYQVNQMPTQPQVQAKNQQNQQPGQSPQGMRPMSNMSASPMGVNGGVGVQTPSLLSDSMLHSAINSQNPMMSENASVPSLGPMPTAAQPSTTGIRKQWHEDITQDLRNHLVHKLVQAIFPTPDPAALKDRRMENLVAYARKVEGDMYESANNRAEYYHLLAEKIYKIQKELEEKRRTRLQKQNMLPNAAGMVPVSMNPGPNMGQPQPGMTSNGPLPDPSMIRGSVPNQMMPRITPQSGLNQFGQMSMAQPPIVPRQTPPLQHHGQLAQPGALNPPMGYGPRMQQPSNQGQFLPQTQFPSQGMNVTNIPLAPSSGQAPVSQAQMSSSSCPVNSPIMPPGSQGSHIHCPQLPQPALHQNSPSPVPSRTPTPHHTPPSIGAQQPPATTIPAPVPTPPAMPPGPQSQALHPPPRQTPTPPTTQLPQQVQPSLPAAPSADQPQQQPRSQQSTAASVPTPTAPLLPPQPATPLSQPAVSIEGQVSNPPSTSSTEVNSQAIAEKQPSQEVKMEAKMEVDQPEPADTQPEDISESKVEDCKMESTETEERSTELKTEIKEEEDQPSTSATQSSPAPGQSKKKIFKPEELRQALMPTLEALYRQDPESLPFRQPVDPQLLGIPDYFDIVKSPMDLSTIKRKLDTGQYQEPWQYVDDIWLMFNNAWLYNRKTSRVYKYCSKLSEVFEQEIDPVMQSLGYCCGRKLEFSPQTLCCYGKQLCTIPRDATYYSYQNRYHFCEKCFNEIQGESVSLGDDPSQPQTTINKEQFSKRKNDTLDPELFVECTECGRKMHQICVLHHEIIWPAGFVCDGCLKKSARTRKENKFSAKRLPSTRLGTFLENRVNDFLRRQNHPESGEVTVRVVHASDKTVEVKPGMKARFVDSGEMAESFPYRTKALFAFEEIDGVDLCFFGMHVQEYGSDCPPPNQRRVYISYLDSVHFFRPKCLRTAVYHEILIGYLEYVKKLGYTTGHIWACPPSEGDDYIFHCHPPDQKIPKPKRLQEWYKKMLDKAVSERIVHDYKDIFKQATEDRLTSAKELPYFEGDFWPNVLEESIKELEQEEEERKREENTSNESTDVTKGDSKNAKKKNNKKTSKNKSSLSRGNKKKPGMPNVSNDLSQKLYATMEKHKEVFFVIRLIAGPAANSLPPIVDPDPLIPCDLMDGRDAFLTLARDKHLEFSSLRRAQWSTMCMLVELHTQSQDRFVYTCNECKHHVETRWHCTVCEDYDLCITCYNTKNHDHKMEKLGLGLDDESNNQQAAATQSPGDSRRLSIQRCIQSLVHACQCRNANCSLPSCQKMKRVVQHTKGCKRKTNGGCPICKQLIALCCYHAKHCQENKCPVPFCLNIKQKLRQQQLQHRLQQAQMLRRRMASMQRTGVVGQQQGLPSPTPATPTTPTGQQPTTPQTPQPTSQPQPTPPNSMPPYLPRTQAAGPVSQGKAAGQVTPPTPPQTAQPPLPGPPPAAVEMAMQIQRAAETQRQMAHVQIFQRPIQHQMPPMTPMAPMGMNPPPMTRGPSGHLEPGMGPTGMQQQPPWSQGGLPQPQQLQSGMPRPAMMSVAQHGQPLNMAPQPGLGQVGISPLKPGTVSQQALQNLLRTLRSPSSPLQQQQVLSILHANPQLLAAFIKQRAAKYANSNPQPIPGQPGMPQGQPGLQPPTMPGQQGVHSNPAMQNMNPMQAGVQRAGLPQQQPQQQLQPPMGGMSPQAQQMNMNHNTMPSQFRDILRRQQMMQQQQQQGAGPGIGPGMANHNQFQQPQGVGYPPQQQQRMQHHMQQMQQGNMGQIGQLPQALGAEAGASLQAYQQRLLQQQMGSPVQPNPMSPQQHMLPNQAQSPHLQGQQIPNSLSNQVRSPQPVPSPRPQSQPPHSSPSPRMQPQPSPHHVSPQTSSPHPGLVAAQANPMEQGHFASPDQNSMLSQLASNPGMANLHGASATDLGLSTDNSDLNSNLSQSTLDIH
Method: The HAT activity inhibitory ability of HAT inhibitors was evaluated using SensoLyte HAT(p300) Assay Kit (ANASPEC, AS-72172). Specifically, 7.5 μL of the compound of Examples […] diluted with assay buffer was added to 7.5 μL of recombinant p300 solution diluted 10 times with assay buffer, and the mixture was incubated at room temperature for 10 minutes. 7.5 μL of acetyl CoA solution diluted 10 times with assay buffer and 15 μL of histone H3 peptide diluted 10 times with assay buffer were added thereto, and the mixture was incubated at 37° C. for 30 minutes. 37.5 μL of Stop Solution was added to stop the reaction. 75 μL of p300 Developer solution diluted 50 times with assay buffer was added, and the mixture was incubated at room temperature for 30 minutes under light-shielded conditions. The fluorescence at 513 nm when irradiated with 389 nm excitation light was measured using a multiplate reader.

[1] = Pharmacokinetic study in mice; format: in vivo; details: for BA: oral 10 mg/kg vs intravenous 1 mg/kg
Method: The test compound was administered to 7-week-old female BALE/c (BALB/cAnN CrlCrlj) mice intravenously (dosage: 1 mg/kg) in a 50% PEG solution (0.01 mol/L HCl) or orally (dosage: 10 mg/kg) in a 0.5% methylcellulose aqueous solution, and blood was collected at the following times: • Intravenous administration: 5 min, 15 min, 30 min, 1 hr, 2 hr, 4 hr, 6 hr, and 24 hr after administration • Oral administration: 15 min, 30 min, 1 hr, 2 hr, 4 hr, 6 hr, and 24 hr after administration
The collected blood was centrifuged at 3000 rpm×10 min using a refrigerated centrifuge set at 4° C., and the obtained plasma was measured by LC-MS. A calibration curve was prepared from the value (peak ratio) obtained by dividing the peak area of the test substance by the peak area of the internal standard substance in MS and the concentration of the plasma calibration curve sample. The concentration in the sample was calculated from the peak ratio and the calibration curve of each sample.

G-401 cells = assay: Cell proliferation inhibition experiment using G-401 cells; format: cell-based
Method: G-401 cells (derived from malignant rhabdoid tumor) were obtained from the American Type Culture Collection (ATCC). G-401 cells were cultured in McCoy's 5A medium containing 10% fetal bovine serum and 1% penicillin/streptomycin under conditions of 37° C. and 5% CO2.
500 cells per well were seeded in a 384-well plate. One day after seeding, Examples 1 to 35 were added so that the final concentration of DMSO was 0.1%, and the cells were cultured for 3 days. After the culture was completed, the cell viability was measured using CellTiter-Glo Luminescent Cell Viability Assay (Promega, G7570).

Compound: CNC(=O)Cn1cc(-c2ccc3c(c2)[C@H](F)C[C@]32NC(=O)N(CC(=O)N(Cc3ccc(F)cc3)[C@@H](C)C(F)(F)F)C2=O)cn1 [Comparative Example 1, reference compound]
- Antitumor effect, intravenous administration (in words) (G-401 xenograft): no antitumor effect

Compound: CNC(=O)Nc1ccc2c(c1)CC[C@@]21OC(=O)N(CC(=O)N2[C@@H](C)CC[C@H]2c2cc(F)c(F)c(F)c2)C1=O [Comparative Example 2, reference compound]
- Solubility in pH 3.0 buffer (Solubility test; 10 mmol/L citrate buffer (pH 3.0), 5° C., overnight): 0.005 mg/mL
- Solubility in pH 2.0 buffer (Solubility test; 10 mmol/L glycine buffer (pH 2.0), 5° C., overnight): 0.004 mg/mL
- solubility (Solubility test; 10 mmol/L citrate buffer (pH 3.0), 5° C., overnight, read-out: Solubility in pH 3.0 buffer): 5 µg/mL (≈ 9.43 µM)
- solubility (Solubility test; 10 mmol/L glycine buffer (pH 2.0), 5° C., overnight, read-out: Solubility in pH 2.0 buffer): 4 µg/mL (≈ 7.54 µM)
- inhibition at 10 µM (hSERT; 10 μM, HEK293/hSERT membrane preparation): 76%
- Inhibitory effect on serotonin receptors (in words) (hSERT): strong inhibitory effect
- inhibition at 10 µM (hDAT; 10 μM, CHO-S/hDAT membrane preparation): 88%
- Inhibitory effect on dopamine receptors (in words) (hDAT): strong inhibitory effect

Compound: CN1CC(N(Cc2ccc(F)cc2)C(=O)CN2C(=O)N[C@]3(C[C@@H](F)c4cc(-c5cnn(C6CCOCC6)c5)ccc43)C2=O)(C(F)(F)F)C1 [Example 19, 2-{(1′S,3′R)-3′-fluoro-5′-[1-(oxan-4-yl)-1H-pyrazol-4-yl]-2,5-dioxo-2′,3′-dihydrospiro[imidazolidine-4,1′-inden]-1-yl}-N-[(4-fluorophenyl)methyl]-N-[1-methyl-3-(trifluoromethyl)azetidin-3-yl]acetamide]
- Cell proliferation inhibitory effect on G-401 cells (in words) (G-401 cells): strong cell proliferation inhibitory effect

Compound: CN1CC(N(Cc2ccc(F)cn2)C(=O)CN2C(=O)N[C@]3(C[C@@H](F)c4cc(-c5cnn(C6COC6)c5)ccc43)C2=O)(C(F)(F)F)C1 [Example 24, 2-{(1′S,3′R)-3′-fluoro-5′-[1-(oxetan-3-yl)-1H-pyrazol-4-yl]-2,5-dioxo-2′,3′-dihydrospiro[imidazolidine-4,1′-inden]-1-yl}-N-[(5-fluoropyridin-2-yl)methyl]-N-[1-methyl-3-(trifluoromethyl)azetidin-3-yl]acetamide]
- Pharmacokinetics (in words) [1]: excellent pharmacokinetics
- BA [1]: 47.0%
- Solubility (in words) (Solubility test; pH 2.0 and pH 3.0 buffers): high solubility
- Inhibitory effect on serotonin receptors (in words) (hSERT): did not show strong inhibitory activity
- Inhibitory effect on dopamine receptors (in words) (hDAT): did not show strong inhibitory activity
- Antitumor effect, intravenous administration (in words) (G-401 xenograft): strong antitumor effects

Compound: CN1CC(N(Cc2ccc(F)cn2)C(=O)CN2C(=O)N[C@]3(C[C@@H](F)c4cc(-c5cnn(CC6COC6)c5)ccc43)C2=O)(C(F)(F)F)C1 [Example 25, 2-[(1′S,3′R)-3′-fluoro-5′-{1-[(oxetan-3-yl)methyl]-1H-pyrazol-4-yl}-2,5-dioxo-2′,3′-dihydrospiro[imidazolidine-4,1′-inden]-1-yl]-N-[(5-fluoropyridin-2-yl)methyl]-N-[1-methyl-3-(trifluoromethyl)azetidin-3-yl]acetamide]
- Inhibitory effect on serotonin receptors (in words) (hSERT): did not show strong inhibitory activity
- Inhibitory effect on dopamine receptors (in words) (hDAT): did not show strong inhibitory activity

More lines, now with the values ahead:

- pIC50 (recombinant p300): 7.76
Compound: O=C1N[C@]2(CCc3cc(-c4cnn(C5CN(C6COC6)C5)c4)ccc32)C(=O)N1CC(=O)N(Cc1ccc(F)cn1)C1(C(F)(F)F)CC(F)(F)C1 [Example 8, N-[3,3-difluoro-1-(trifluoromethyl)cyclobutyl]-N-[(5-fluoropyridin-2-yl)methyl]-2-[(1′S)-5′-{-[1-(oxetan-3-yl)azetidin-3-yl]-1H-pyrazol-4-yl}-2,5-dioxo-2′,3′-dihydrospiro[imidazolidine-4,1′-inden]-1-yl]acetamide]

- pIC50 (recombinant p300): 9.22
Compound: O=C1N[C@]2(C[C@@H](F)c3cc(-c4cnn(C5CN(C6COC6)C5)c4)ccc32)C(=O)N1CC(=O)N(Cc1ccc(F)cn1)C1(C(F)(F)F)CC(F)(F)C1 [Example 9, N-[3,3-difluoro-1-(trifluoromethyl)cyclobutyl]-2-[(1′S,3′R)-3′-fluoro-5′-{1-[1-(oxetan-3-yl)azetidin-3-yl]-1H-pyrazol-4-yl}-2,5-dioxo-2′,3′-dihydrospiro[imidazolidine-4,1′-inden]-1-yl]-N-[(5-fluoropyridin-2-yl)methyl]acetamide]

- BA [1]: 30.0%
Compound: CN1CC(N(Cc2ccc(F)cc2)C(=O)CN2C(=O)N[C@]3(CCc4cc(-c5cnn(C)c5)ccc43)C2=O)(C(F)(F)F)C1 [Example 12, N-[(4-fluorophenyl)methyl]-2-[(1′S)-5′-(1-methyl-1H-pyrazol-4-yl)-2,5-dioxo-2′,3′-dihydrospiro[imidazolidine-4,1′-inden]-1-yl]-N-[1-methyl-3-(trifluoromethyl)azetidin-3-yl]acetamide]
